Test results taken from article PMC12006171, “Marsupial cathelicidins: characterization, antimicrobial activity and evolution in this unique mammalian lineage” (Frontiers in Immunology, 2025).
≈ marks a conversion by molar mass, not a printed value. Read-outs that look alike come from different tables or passages of the source. Where a SMILES comes first, the peptide text is derived from it.

Experiments:
[1] = test system: six bacteria (S. aureus, E. coli, P. aeruginosa; ATCC and clinical isolate); set-up: method as in 4 sources, ref Peel et al 2016 ||| ref Peel et al 2021 ||| ref Wang et al 2011 ||| ref Peel et al 2017; conditions: cited from earlier work
[2] = test system: three fungi (Candida krusei, Candida parapsilosis, Candida albicans); set-up: method as in 4 sources, ref Peel et al 2016 ||| ref Peel et al 2021 ||| ref Wang et al 2011 ||| ref Peel et al 2017; conditions: cited from earlier work
[3] = test system: Staphylococcus aureus clinical isolate - animal; assay: microbe, parasite or virus in culture; format: cell-based; conditions: clinical isolate - animal; for MIC: read-out: MIC S. aureus
Protocol: (§1) Antimicrobial testing of 78 cathelicidin MPs was performed in two phases as outlined in Figure 1 . In phase I, 40 peptides (27 extant and 13 ancestral) were selected for testing based on rank (outlined above) and similarity to published marsupial cathelicidins with known antimicrobial activity ([33], [41]–[43]). These peptides were tested against nine bacteria (Staphylococcus aureus ATCC 29213 and clinical isolate, Escherichia coli ATCC 25922 and clinical isolate, Pseudomonas aeruginosa ATCC 27853 and clinical isolate, Streptococcus agalactiae ATCC 12386 and clinical isolate, Streptococcus pneumoniae ATCC 49619) and three fungi (Candida krusei ATCC 6258, Candida parapsilosis ATCC 22019, and Candida albicans clinical isolate). Details regarding these strains are available in Supplementary Table 4 . The antimicrobial activity of cathelicidins was determined as the minimum inhibitory concentration (MIC), which was the lowest concentration of cathelicidin that prevented visible bacterial or fungal growth, relative to the negative control. […] Minimum bactericidal concentration (MBC) and/or minimum fungicidal concentration (MFC) was conducted to determine microbicidal versus static action. Activity against S. aureus ATCC, E. coli ATCC, and Pseudomonas aeruginosa ATCC 27853 was examined in the presence of divalent cations to determine the impact of inhibitors.
(§2) In phase II, the remaining 38 peptides (37 extant and one ancestral) were tested against six bacteria (S. aureus ATCC and clinical isolate, E. coli ATCC and clinical isolate, and P. aeruginosa ATCC and clinical isolate). […] No further testing on phase II peptides was performed. Detailed methods for all assays are provided in subsequent sections.
(§3) Antimicrobial activity was determined using a broth microdilution susceptibility assay in 96 well polypropylene plates according to Clinical Laboratory Standards Institute guidelines M07-A and M26A as described previously ([33], [42], [43]). The bacterial and fungal isolates from humans and animals used in this study are outlined in Supplementary Table 4 . Only yeasts were included in the panel of fungi as they have been used in the susceptibility testing of eutherian ([3], [81]–[83]) and other marsupial cathelicidins previously ([33], [42], [43]). Cathelicidin mature peptides were solubilized in DMSO and serially diluted in duplicate from 128-0.25μg/mL in a final volume of 100µL. For bacteria, cathelicidins were diluted in Mueller Hinton Broth (MHB) with or without 10% lysed horse blood, and with (MH II B) or without (MHB) calcium and magnesium cations. For fungi, cathelicidins were diluted in Roswell Park Memorial Institute medium (RPMI)-1640 MOPS. Ampicillin or tetracycline were included as a positive control for Gram-positive and -negative bacteria respectively, while amphotericin B was used for fungi. A media-only negative control and growth control (no cathelicidin) were also included on each plate. Bacteria were sub-cultured on Muller Hinton agar (MHA) or sheep blood agar (BA), and fungi on Sabouraud dextrose agar (SAB), 20–24 hours prior to the test. Colonies were suspended in saline, the concentration adjusted to a 0.5 McFarland standard, and then diluted in media to a concentration of 1.0 x 10^6 cells/mL. Then, 100μL was added to each well of the cathelicidin dilution plate, giving a final inoculum density of 5 x 10^5 CFU/mL and cathelicidin concentration of 64-0.125μg/mL. Colony counts were performed on MHA/BA/SAB to confirm inoculum density. All plates were incubated at 35°C for 20–24 hours, depending on the strain.
(§4) Colonies were counted and compared to the colony count of the starting inoculum.

[4] = test system: Pseudomonas aeruginosa ATCC 27853; assay: microbe, parasite or virus in culture; format: cell-based; conditions: ATCC 27853; read-out: MIC P. aeruginosa ATCC
Protocol: as §1, §2, §3, §4

[5] = test system: Pseudomonas aeruginosa clinical isolate - animal; assay: microbe, parasite or virus in culture; format: cell-based; conditions: clinical isolate - animal; read-out: MIC P. aeruginosa
Protocol: as §1, §2, §3, §4

[6] = test system: Escherichia coli ATCC 25922; assay: microbe, parasite or virus in culture; format: cell-based; conditions: ATCC 25922
Protocol: as §1, §2, §3, §4

[7] = test system: Escherichia coli clinical isolate - animal; assay: microbe, parasite or virus in culture; format: cell-based; conditions: clinical isolate - animal
Protocol: as §1, §2, §3, §4

[8] = test system: Staphylococcus aureus ATCC 29213; assay: microbe, parasite or virus in culture; format: cell-based; conditions: ATCC 29213; for MIC: read-out: MIC S. aureus ATCC
Protocol: as §1, §2, §3, §4

[9] = mature peptide, Y/N summary from earlier study, ref Wang et al 2011
[10] = mature peptide (MP), Y/N summary, ref Peel et al 2017

Q: Which results are given for “KRGLWESLKRKATKLGDDIRNTLRNFKIKFPVPRQG [MaeuCath2*]”?
A: Antibacterial (MIC <64ug/mL) [1, 9]: Y (Wang et al 2011) (Antibacterial (MIC <64ug/mL)); Antifungal (MIC <64ug/mL) [2, 9]: Y (Wang et al 2011) (Antifungal (MIC <64ug/mL))

Q: For “KRGFGKKLRKRLKKFRNSIKKRLKNFNVVIPIPLPG [MaeuCath1]”, which “Antibacterial (MIC <64ug/mL)” value [1, 9] is on record?
A: Its value is “Y (Wang et al 2011) (Antibacterial (MIC <64ug/mL))”.

Q: And the “Antifungal (MIC <64ug/mL)” value [2, 9]?
A: The value was “Y (Wang et al 2011) (Antifungal (MIC <64ug/mL))”.

Q: For `CC[C@H](C)[C@H](NC(=O)[C@H](CC(C)C)NC(=O)[C@H](CC(N)=O)NC(=O)[C@@H](NC(=O)[C@H](Cc1ccccc1)NC(=O)CNC(=O)[C@@H](N)Cc1c[nH]c2ccccc12)[C@@H](C)O)C(=O)N[C@@H](Cc1ccc(O)cc1)C(=O)N[C@@H](CCC(N)=O)C(=O)N[C@@H](CCCCN)C(=O)N[C@@H](Cc1ccc(O)cc1)C(=O)N[C@@H](CCCCN)C(=O)N[C@@H](CC(C)C)C(=O)N[C@@H](CC(C)C)C(=O)N[C@@H](CCCNC(=N)N)C(=O)N[C@@H](CC(N)=O)C(=O)N[C@H](C(=O)N[C@@H](Cc1ccccc1)C(=O)N[C@@H](CCCNC(=N)N)C(=O)N[C@@H](CCCCN)C(=O)N[C@@H](CC(C)C)C(=O)N[C@@H](CCCNC(=N)N)C(=O)N[C@@H](CC(N)=O)C(=O)N[C@H](C(=O)N[C@@H](CO)C(=O)N[C@@H](CO)C(=O)NCC(=O)NCC(=O)N[C@@H](CCCNC(=N)N)C(=O)N[C@@H](CC(=O)O)C(=O)N[C@@H](CC(N)=O)C(=O)N[C@@H](CCCCN)C(=O)N[C@@H](CCCCN)C(=O)O)[C@@H](C)O)C(C)C` [BepeCath4] (H-WGFTNLIYQKYKLLRNVFRKLRNTSSGGRDNKK-OH), which MBC S. aureus [3] is on record?
A: Its MBC S. aureus is 7.9 µM (≈ 31.6 µg/mL).

Q: And the MIC S. aureus [3]?
A: Its MIC S. aureus is 7.9 µM (≈ 31.6 µg/mL).

Q: And the MIC [4]?
A: Its MIC is greater than 15.9 µM.

Q: What about the MIC [5] of the same molecule?
A: Its MIC is greater than 15.9 µM.

Q: What about the MBC E. coli ATCC [6] of the same molecule?
A: Its MBC E. coli ATCC is 3.9 µM (≈ 15.6 µg/mL).

Q: And the MIC E. coli ATCC [6]?
A: Its MIC E. coli ATCC is 3.9 µM (≈ 15.6 µg/mL).

Q: What about the “MBC E. coli” value [7] of the same molecule?
A: Its value is 7.9 µM (≈ 31.6 µg/mL).

Q: And the MIC [7]?
A: Its MIC is 3.9 µM (≈ 15.6 µg/mL).

Q: What about the “MBC S. aureus ATCC” value [8] of the same molecule?
A: Its value is 15.9 µM (≈ 63.6 µg/mL).

Q: And the MIC [8]?
A: Its MIC is 7.9 µM (≈ 31.6 µg/mL).

Q: With `CC[C@H](C)[C@H](NC(=O)[C@H](CO)NC(=O)[C@H](CCCNC(=N)N)NC(=O)[C@H](CCCNC(=N)N)NC(=O)[C@@H]1CCCN1C(=O)[C@H](CCCNC(=N)N)NC(=O)[C@@H]1CCCN1C(=O)[C@H](Cc1ccccc1)NC(=O)[C@@H]1CCCN1C(=O)[C@H](Cc1ccccc1)NC(=O)CNC(=O)[C@@H]1CCCN1C(=O)[C@H](CCCNC(=N)N)NC(=O)[C@@H]1CCCN1C(=O)[C@H](Cc1ccccc1)NC(=O)[C@@H]1CCCN1C(=O)[C@H](Cc1ccccc1)NC(=O)CNC(=O)[C@@H]1CCCN1C(=O)[C@H](CCCNC(=N)N)NC(=O)[C@@H]1CCCN1C(=O)[C@H](Cc1ccccc1)NC(=O)[C@H](CO)NC(=O)[C@@H]1CCCN1C(=O)[C@H](CCCNC(=N)N)NC(=O)[C@@H]1CCCN1C(=O)[C@H](CCCNC(=N)N)NC(=O)[C@@H]1CCCN1C(=O)[C@H](CCCNC(=N)N)NC(=O)[C@@H]1CCCN1C(=O)[C@H](CC(C)C)NC(=O)[C@H](Cc1ccc(O)cc1)NC(=O)[C@@H]1CCCN1C(=O)[C@H](CCCNC(=N)N)NC(=O)[C@H](CCCNC(=N)N)NC(=O)[C@H](CCC(=O)O)NC(=O)[C@H](CCCNC(=N)N)NC(=O)[C@@H](N)CCCNC(=N)N)C(=O)O` [MyfaCath3] (H-RRERRPYLPRPRPRPSFPRPGFPFPRPGFPFPRPRRSI-OH) as the molecule, how does the MIC [3] read?
A: The MIC was greater than 13.6 µM.

Q: And the MIC [4]?
A: The MIC was greater than 13.6 µM.

Q: And the MIC [5]?
A: The MIC was greater than 13.6 µM.

Q: What about the MBC E. coli ATCC [6] of the same molecule?
A: The MBC E. coli ATCC was 1.7 µM (≈ 7.99 µg/mL).

Q: And the MIC E. coli ATCC [6]?
A: Its MIC E. coli ATCC is 1.7 µM (≈ 7.99 µg/mL).

Q: And the MBC E. coli [7]?
A: The MBC E. coli was 3.4 µM (≈ 16 µg/mL).

Q: What about the MIC E. coli [7] of the same molecule?
A: Its MIC E. coli is 3.4 µM (≈ 16 µg/mL).

Q: And the MIC [8]?
A: Its MIC is greater than 13.6 µM.

Q: What does the source list for “TLTQAHCPYFLRKKPEGEMATGGRPQETPKLLGAL [ModoCath10]”?
A: Antibacterial (MIC <64ug/mL) [1, 10]: N (Peel et al 2017) (Antibacterial (MIC <64ug/mL)); Antifungal (MIC <64ug/mL) [2, 10]: N (Peel et al 2017) (Antifungal (MIC <64ug/mL))

Q: Which “Antibacterial (MIC <64ug/mL)” value [1, 10] does the source give for RTFGNLIHQKYRKLLEAYRKLRDIFSG [ModoCath5] here?
A: The value was “N (Peel et al 2017) (Antibacterial (MIC <64ug/mL))”.

Q: And the “Antifungal (MIC <64ug/mL)” value [2, 10]?
A: The value was “N (Peel et al 2017) (Antifungal (MIC <64ug/mL))”.

Q: For `CC[C@H](C)[C@H](NC(=O)CNC(=O)[C@H](Cc1ccccc1)NC(=O)CNC(=O)[C@@H](NC(=O)[C@@H](NC(=O)[C@H](CCCNC(=N)N)NC(=O)[C@H](CCCNC(=N)N)NC(=O)[C@H](CCCNC(=N)N)NC(=O)[C@@H](NC(=O)[C@H](CO)NC(=O)[C@H](CC(N)=O)NC(=O)[C@H](CCCCN)NC(=O)[C@H](CC(C)C)NC(=O)[C@H](CCCCN)NC(=O)[C@H](CCSC)NC(=O)CNC(=O)[C@@H](NC(=O)[C@H](CCCCN)NC(=O)[C@H](CCCCN)NC(=O)[C@@H](NC(=O)[C@@H](NC(=O)[C@H](CC(=O)O)NC(=O)[C@H](Cc1c[nH]c2ccccc12)NC(=O)[C@H](CC(C)C)NC(=O)CNC(=O)[C@H](CCCNC(=N)N)NC(=O)[C@@H](N)CCCCN)[C@@H](C)O)C(C)C)[C@@H](C)O)[C@@H](C)CC)C(C)C)[C@@H](C)O)C(=O)NCC(=O)N[C@H](C(=O)N[C@@H](C)C(=O)N[C@H](C(=O)N[C@@H](CC(C)C)C(=O)N[C@H](C(=O)N1CCC[C@H]1C(=O)N[C@@H](CCCNC(=N)N)C(=O)O)C(C)C)[C@@H](C)CC)[C@@H](C)O` [LahiCath5] (H-KRGLWDTVKKTGMKLKNSIRRRVTGFGIGTAILVPR-OH), which MIC [3] is on record?
A: The MIC was greater than 15.7 µM.

Q: What about the MIC [4] of the same molecule?
A: The MIC was greater than 15.7 µM.

Q: What about the MIC [5] of the same molecule?
A: The MIC was greater than 15.7 µM.

Q: What about the MBC E. coli ATCC [6] of the same molecule?
A: Its MBC E. coli ATCC is 3.9 µM (≈ 15.8 µg/mL).

Q: And the MIC E. coli ATCC [6]?
A: The MIC E. coli ATCC was 3.9 µM (≈ 15.8 µg/mL).

Q: What about the “MBC E. coli” value [7] of the same molecule?
A: The value was 7.8 µM (≈ 31.6 µg/mL).

Q: And the MIC [7]?
A: The MIC was 3.9 µM (≈ 15.8 µg/mL).

Q: And the MIC [8]?
A: Its MIC is greater than 15.7 µM.

Q: Which “Antibacterial (MIC <64ug/mL)” value ([1]; mature peptide (MP), Y/N summary, ref Wang et al 2011) does the source give for KDILKNNNIIILPGSNEK [OranCath1] here?
A: Its value is “Y (Wang et al 2011) (Antibacterial (MIC <64ug/mL))”.
